Test results reported in patent US9210928B2, “Plant development control composition” (Syngenta Crop Protection, LLC, priority 2008, dated 2015).
“Also recorded” adds a separate entry of the source.

Key:
LeCCD1a [1] = biological target: LeCCD1a (Solanum lycopersicum, UniProt Q6E4P5); assay: In vitro LeCCD1a enzyme assay (recombinant cell-free extract, colourimetric, apo-8′-carotenal substrate); type: biochemical, tomato (Solanum lycopersicum); details: for inhibition at 100 µM: read-out: LeCCD1a (9,10/9′,10′) Inhibition @ 100 μM (%)
Procedure: In vitro LeCCD1a enzyme assay—We over-expressed LeCCD1a in E. coli, as a GST-fusion protein (supplemental methods). The in vitro assay of LeCCD1a was based on reported methods (37), and was carried out in a 200 μl total volume in a 96-well microtitre plate, with the signal detected at 485 nm. To prepare substrate solution for each assay, 5 μl of 4% (w/v in ethanol) apo-8′-carotenal (Sigma) was mixed with 25 μl of 4% (w/v in ethanol) β-octylglucoside (Sigma), the ethanol was then evaporated under nitrogen, and the residue dissolved in 150 μl PBS buffer containing 10 mM sodium ascorbate by incubation at 20° C. for 30 min. 50 μl of cell-free extract containing recombinant LeCCD1a was added, and the reactions monitored over 30 min at 20° C.
For the production of cell-free extracts of LeCCD1a and LeNCED1, cultures were grown to an OD of 0.6 at 37° C., then isopropyl β-D-1-thiogalactopyranoside (IPTG) was added to 0.2 mM and the cultures grown overnight at 20° C. The cells (200 ml cultures) were harvested by centrifugation (5000 rpm, 10 min) and the pellet re-suspended in 4 ml PBS, 0.1% Triton-X 100. Lysozyme was added to a final concentration of 25 μg ml^−1 and the solution incubated at room temperature for 15 min before sonication (3×30 s at 18Ω) on ice. The lysate was then centrifuged (13000 rpm, 15 min, 4° C.) and the supernatant used for the assay.
Specificity of inhibition in vitro for tomato genes LeNCED1 and LeCCD1a—In order to screen the inhibitors against enzymes which cleave carotenoids at the 9,10 position, we used the recombinant tomato LeCCD1a protein (44), because this type of enzyme can be studied using an in vitro colourimetric assay with β-apo-8′-carotenal as substrate (37). To establish the specificity of the inhibitors, they were also tested against the tomato LeNCED1 recombinant protein which cleaves 9-cis carotenoids at the 11,12 position (45). For this enzyme, the cleavage reaction was monitored by C18 reverse phase HPLC, using 9′-cis-neoxanthin as substrate.

LeCCD1a [2] = assay: In vivo enzyme assay in β-carotene-producing E. coli expressing LeCCD1a; type: cell-based, Solanum lycopersicum; details: 100 μM inhibitor, 16 hours; FIG. 4
Description: In vivo enzyme assays in E. coli—The genes of interest (supplemental Table S1) were cloned into the vector pET30c (Novagen) fused directly to the initial ATG codon with no tag, or into pGEX-4T such that the gene was fused to an N-terminal GST tag. All genes were full length except AtCCD7, which had the chloroplast signal sequence removed (supplemental methods). […] Therefore, this construct was used in subsequent assays. The plasmids were transferred to the E. coli expression strain BL21(DE3), harbouring pAC-BETA (38), and therefore producing β-carotene.
For each inhibitor assay, 2.5 ml LB media with the appropriate antibiotics (25 μg ml^−1 chloramphenicol and 50 μg ml^−1 kanamycin or 100 μg ml^−1 ampicillin) and 2.5 μM IPTG, was prepared. Inhibitors (0.1 M in 100% ethanol) were added to the media to a final concentration of 100 μM. The media was then inoculated with 0.25 ml of overnight culture (grown at 37° C. with the appropriate antibiotics) and incubated with shaking (200 rpm) at 28° C. for 16 hours. One ml of culture was harvested by microcentrifugation and resuspended thoroughly in 1 ml ethanol containing 0.2% Triton X-100. After vortexing, the extract was incubated at room temperature in the dark for 3 hours, again vortexed and then spun in a microcentrifuge for 5 min at 13000 rpm. The supernatant was removed and the O.D.453-O.D.550 was measured. The amount of β-carotene was calculated using a standard curve generated from a dilution series of β-carotene (Sigma) in ethanol with 0.2% Triton X-100; the absolute levels of β-carotene are shown in FIG. 8. The relative inhibition was calculated by the equation: (Ci−Cc)/(C1−Cc)×100, where Ci is the carotenoid level with inhibitor and CCD present, Cc is the level with CCD but without the inhibitor and C1 is the level in a strain where lacZ is expressed instead of the CCD, and no inhibitor is present. Thus the increase in β-carotene due to inhibition of the CCD […] was expressed relative to the maximum possible β-carotene content when CCD is absent (C1−Cc).
In vivo activity of inhibitors applied to E. coli strains expressing CCDs—Coloured E. coli strains that produce various carotenoids can be constructed by expression of enzymes for carotenoid synthesis (26). Upon co-expression of the appropriate CCD, the bacteria lose their colour due to cleavage of the carotenoids to colourless products (4,6,27). This technique was employed here to further explore the specificity of inhibitors, and to test their activity in vivo. The level of carotenoid in each CCD-expressing strain was compared to the level of the carotenoid in a control strain producing β-carotene but lacking any CCD gene. The difference in the carotenoid levels gave a measure of CCD activity, and inhibition of this activity was measured by addition of inhibitors to the growing medium.
The inhibitors were tested against four β-carotene-producing E. coli strains (supplemental Table S1). Three of the strains expressed highly divergent CCDs that cleave at the 9,10 position: AtCCD7 from Arabidopsis (21) and MmBCO2 from mouse (6) which both cleave at a single site (9,10 or 9′,10′ but not both), and the tomato enzyme LeCCD1a (44) which cleaves at both sites in the same substrate molecule (9,10/9′,10′ activity). The fourth strain expressed another mouse CCD, MmBCO1 (47), which cleaves centrally at 15,15′. […]

Chain of LeCCD1a (Solanum lycopersicum, UniProt Q6E4P5) (Q6E4P5 1-545): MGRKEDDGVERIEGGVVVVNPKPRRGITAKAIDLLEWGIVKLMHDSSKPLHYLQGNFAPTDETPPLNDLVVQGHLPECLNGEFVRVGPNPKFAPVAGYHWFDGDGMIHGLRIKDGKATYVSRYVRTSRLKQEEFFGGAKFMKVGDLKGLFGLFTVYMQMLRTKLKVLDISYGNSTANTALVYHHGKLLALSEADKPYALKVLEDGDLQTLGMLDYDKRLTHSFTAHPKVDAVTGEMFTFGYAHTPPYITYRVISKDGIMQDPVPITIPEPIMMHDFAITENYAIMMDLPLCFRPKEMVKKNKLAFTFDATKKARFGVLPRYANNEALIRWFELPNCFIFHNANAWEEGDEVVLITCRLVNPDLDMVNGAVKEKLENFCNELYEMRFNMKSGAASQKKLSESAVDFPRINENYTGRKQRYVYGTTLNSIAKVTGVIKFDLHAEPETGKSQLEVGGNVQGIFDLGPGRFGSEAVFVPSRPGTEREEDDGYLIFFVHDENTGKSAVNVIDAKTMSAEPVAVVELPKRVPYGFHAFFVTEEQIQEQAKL

## COc1ccc(C(=O)N(O)Cc2ccccc2)cc1 [Compound F1, N-benzyl-4-methoxybenzoyl hydroxamic acid]
LeCCD1a [1]
  inhibition of LeCCD1 in vitro (in words): high levels of inhibition of LeCCD1
  inhibition at 100 µM: > 95%
LeCCD1a [2]
  relative inhibition of LeCCD1a in E. coli (in words): good activity against LeCCD1a; also recorded: high inhibitory activity

## COc1ccc(C(=O)N(O)Cc2ccc(F)cc2)cc1 [Compound F2, N-(4-fluorobenzyl)-4-methoxybenzoyl hydroxamic acid]
LeCCD1a [1]
  inhibition of LeCCD1 in vitro (in words): high levels of inhibition of LeCCD1
  inhibition at 100 µM: > 95%
LeCCD1a [2]
  relative inhibition of LeCCD1a in E. coli (in words): good activity against LeCCD1a; also recorded: high inhibitory activity

## COc1ccc(C(=O)N(O)Cc2ccccc2)cc1OC [Compound F3, N-benzyl-3,4-dimethoxybenzoyl hydroxamic acid]
LeCCD1a [1]; 100 μM inhibitor, E. coli cell extract with recombinant CCD
  LeCCD1a (9,10/9′,10′) Inhibition @ 100 μM (%): 50%
LeCCD1a [2]
  relative inhibition of LeCCD1a in E. coli (in words): virtually none
